Measurements as given in PubChem BioAssay AID256 (DTP/NCI, 2004).
“And” between values parts separate entries of the source, which are not always exact repeats. Equal entries are not always repeated. Toxic doses and inconclusive results are not listed. The calls were made as follows: active = survival T/C of 150% or more; inactive = T/C below 125% in these data.

System: CD2F1 mice, L1210 leukemia ip, survival T/C
Experiment: NCI In Vivo Anticancer Drug Screen. Data for tumor model L1210 Leukemia (intraperitoneal) in CD2F1 (CDF1) mice
Settings: higher = longer survival
Method in brief: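 Each value reflects a quotient of treated over vehicle control outcomes in mice with a transplanted tumor.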

[1] = endpoint: mean survival time, dose: 25.0 mg/kg/injection, schedule: Q04DX002 (ip), vehicle: saline with Tween-80
[2] = endpoint: mean survival time, dose: 50.0 mg/kg/injection, schedule: Q04DX002 (ip), vehicle: saline with Tween-80
[3] = endpoint: mean survival time, dose: 100.0 mg/kg/injection, schedule: Q04DX002 (ip), vehicle: saline with Tween-80
[4] = endpoint: mean survival time, dose: 100.0 mg/kg/injection, schedule: Q01DX009 (ip), vehicle: saline with Tween-80
[5] = endpoint: mean survival time, dose: 200.0 mg/kg/injection, schedule: Q01DX009 (ip), vehicle: saline with Tween-80
[6] = endpoint: mean survival time, dose: 400.0 mg/kg/injection, schedule: Q01DX009 (ip), vehicle: saline with Tween-80
[7] = endpoint: mean survival time, dose: 100.0 mg/kg/injection, schedule: Q04DX003 (ip), vehicle: saline with Tween-80
[8] = endpoint: mean survival time, dose: 200.0 mg/kg/injection, schedule: Q04DX003 (ip), vehicle: saline with Tween-80
[9] = endpoint: mean survival time, dose: 400.0 mg/kg/injection, schedule: Q04DX003 (ip), vehicle: saline with Tween-80
[10] = endpoint: mean survival time, dose: 25.0 mg/kg/injection, schedule: Q01DX009 (ip), vehicle: saline with Tween-80
[11] = endpoint: mean survival time, dose: 50.0 mg/kg/injection, schedule: Q01DX009 (ip), vehicle: saline with Tween-80
[12] = endpoint: mean survival time, dose: 100.0 mg/kg/injection, schedule: Q01DX001 (ip), vehicle: saline with Tween-80
[13] = endpoint: mean survival time, dose: 50.0 mg/kg/injection, schedule: Q01DX001 (ip), vehicle: saline with Tween-80
[14] = endpoint: mean survival time, dose: 200.0 mg/kg/injection, schedule: Q01DX001 (ip), vehicle: saline with Tween-80
[15] = endpoint: mean survival time, dose: 400.0 mg/kg/injection, schedule: Q01DX001 (ip), vehicle: saline with Tween-80

Measured: T/C

CCCCN(C)c1ccc(N=Nc2cc(Cl)ccc2Cl)cc1
inactive: [1] 96 % of control | [2] 101 % of control | [3] 104 % of control

c1ccc(Cc2ccccc2-c2ccccc2)cc1
inactive: endpoint: mean survival time, dose: 100.0 mg/kg/injection, schedule: Q04DX003 (ip), vehicle: Klucel (hydroxypropylcellulose) (HPC) 89 % of control | endpoint: mean survival time, dose: 200.0 mg/kg/injection, schedule: Q04DX003 (ip), vehicle: Klucel (hydroxypropylcellulose) (HPC) 89 % of control | endpoint: mean survival time, dose: 400.0 mg/kg/injection, schedule: Q04DX003 (ip), vehicle: Klucel (hydroxypropylcellulose) (HPC) 93 % of control

CN1CCCC(OC(=O)C(c2ccccc2)C2(O)CCCCC2)C1 (stereo unspecified)
inactive: endpoint: mean survival time, dose: 75.0 mg/kg/injection, schedule: Q01DX001 (ip), vehicle: saline 101 % of control

N#Cc1cccc(CN2CCCNCC2)c1
inactive: endpoint: mean survival time, dose: 12.5 mg/kg/injection, schedule: Q01DX009 (ip), vehicle: water 98 % of control | endpoint: mean survival time, dose: 25.0 mg/kg/injection, schedule: Q01DX009 (ip), vehicle: water 100 % of control | endpoint: mean survival time, dose: 50.0 mg/kg/injection, schedule: Q01DX009 (ip), vehicle: water 96 % of control | endpoint: mean survival time, dose: 100.0 mg/kg/injection, schedule: Q01DX009 (ip), vehicle: water 105 % of control

CC(=O)c1ccc2sc3ccccc3c2c1
inactive: [4] 98 % of control | [5] 93 % of control | [6] 93 % of control

COC(=O)c1cncc(C(=O)OC)c1
inactive: [4] 94 % of control | [5] 92 % of control | [6] 90 % of control

c1ccc(P(CCNCCP(c2ccccc2)c2ccccc2)c2ccccc2)cc1
inactive: endpoint: median survival time, dose: 25.0 mg/kg/injection, schedule: Q01DX009 (ip), vehicle: saline with Tween-80 101 % of control | endpoint: median survival time, dose: 50.0 mg/kg/injection, schedule: Q01DX009 (ip), vehicle: saline with Tween-80 103 % of control | endpoint: median survival time, dose: 100.0 mg/kg/injection, schedule: Q01DX009 (ip), vehicle: saline with Tween-80 103 % of control | endpoint: median survival time, dose: 200.0 mg/kg/injection, schedule: Q01DX009 (ip), vehicle: saline with Tween-80 101 % of control

CCOC1CC(C)C=CO1 (stereo unspecified)
inactive: endpoint: mean survival time, dose: 100.0 mg/kg/injection, schedule: Q01DX001 (ip), vehicle: saline + alcohol 108 % of control | endpoint: mean survival time, dose: 200.0 mg/kg/injection, schedule: Q01DX001 (ip), vehicle: saline + alcohol 104 % of control | endpoint: mean survival time, dose: 400.0 mg/kg/injection, schedule: Q01DX001 (ip), vehicle: saline + alcohol 96 % of control

NC(CSCc1ccccc1)C(=O)OCc1ccccc1 (stereo unspecified)
inactive: [7] 104 % of control | [8] 102 % of control | [9] 104 % of control

O=S(=O)(SC(Cl)(Cl)Cl)c1ccc(Cl)cc1
inactive: endpoint: mean survival time, dose: 12.5 mg/kg/injection, schedule: Q01DX009 (ip), vehicle: saline sonified 103 % of control | endpoint: mean survival time, dose: 25.0 mg/kg/injection, schedule: Q01DX009 (ip), vehicle: saline sonified 102 % of control | [10] 103 % of control | endpoint: mean survival time, dose: 50.0 mg/kg/injection, schedule: Q01DX009 (ip), vehicle: saline sonified 102 % of control | [11] 98 % of control | [12] 91 % of control | [4] 98 % of control

CCCCNc1cc(=O)[nH]c(=O)[nH]1
inactive: [13] 104 % of control | [12] 98 % of control | [14] 102 % of control

O=C1c2cccc([N+](=O)[O-])c2C(=O)c2c1cccc2[N+](=O)[O-]
inactive: [12] 103 % of control | [14] 102 % of control | [15] 96 % of control

CC(C)(C)/C(=N\Nc1ccc([N+](=O)[O-])cc1[N+](=O)[O-])c1ccccc1
inactive: endpoint: mean survival time, dose: 25.0 mg/kg/injection, schedule: Q01DX001 (ip), vehicle: saline with Tween-80 97 % of control | [13] 95 % of control | [12] 97 % of control

O=C1NC2CC3CC(C2)CC1C3
inactive: endpoint: mean survival time, dose: 12.5 mg/kg/injection, schedule: Q04DX003 (ip), vehicle: alcohol 100 % of control | endpoint: mean survival time, dose: 25.0 mg/kg/injection, schedule: Q04DX003 (ip), vehicle: alcohol 92 % of control | endpoint: mean survival time, dose: 50.0 mg/kg/injection, schedule: Q04DX003 (ip), vehicle: alcohol 97 % of control

CCOC(=O)NCCBr
inactive: endpoint: mean survival time, dose: 37.5 mg/kg/injection, schedule: Q01DX007 (ip), vehicle: saline 88 % of control | endpoint: mean survival time, dose: 75.0 mg/kg/injection, schedule: Q01DX007 (ip), vehicle: saline 97 % of control | endpoint: mean survival time, dose: 150.0 mg/kg/injection, schedule: Q01DX007 (ip), vehicle: saline 92 % of control

Oc1ccc2ccccc2c1NC(=S)Nc1ccccc1
inactive: endpoint: mean survival time, dose: 100.0 mg/kg/injection, schedule: Q04DX002 (ip), vehicle: Klucel (hydroxypropylcellulose) (HPC) 97 % of control | endpoint: mean survival time, dose: 200.0 mg/kg/injection, schedule: Q04DX002 (ip), vehicle: Klucel (hydroxypropylcellulose) (HPC) 93 % of control | endpoint: mean survival time, dose: 400.0 mg/kg/injection, schedule: Q04DX002 (ip), vehicle: Klucel (hydroxypropylcellulose) (HPC) 93 % of control

C/C=C1/C[C@@H](C)[C@@](C)(O)C(=O)OCC2=CCN3CC[C@@H](OC1=O)[C@@H]23
inactive: endpoint: mean survival time, dose: 50.0 mg/kg/injection, schedule: Q04DX003 (ip), vehicle: saline with Tween-80 103 % of control | [7] 103 % of control | [8] 98 % of control

Cc1ccc(C(=O)O)s1
inactive: [7] 91 % of control | [8] 97 % of control

c1cc2c(c(CC3CO3)c1CC1CO1)OCCOCCOCCOCCO2 (stereo unspecified)
inactive: endpoint: median survival time, dose: 12.5 mg/kg/injection, schedule: Q01DX009 (ip), vehicle: saline + alcohol 112 % of control and 97 % of control and 98 % of control | endpoint: median survival time, dose: 25.0 mg/kg/injection, schedule: Q01DX009 (ip), vehicle: saline + alcohol 123 % of control and 97 % of control and 98 % of control | endpoint: median survival time, dose: 50.0 mg/kg/injection, schedule: Q01DX009 (ip), vehicle: saline + alcohol 102 % of control and 104 % of control | endpoint: median survival time, dose: 100.0 mg/kg/injection, schedule: Q01DX009 (ip), vehicle: saline + alcohol 119 % of control and 93 % of control and 110 % of control | endpoint: median survival time, dose: 200.0 mg/kg/injection, schedule: Q01DX009 (ip), vehicle: saline + alcohol 120 % of control

O=C(OC1(c2ccccc2)C2CCC1CC2)c1ccc([N+](=O)[O-])cc1 (stereo unspecified)
inactive: endpoint: mean survival time, dose: 12.5 mg/kg/injection, schedule: Q04DX002 (ip), vehicle: saline with Tween-80 96 % of control | [1] 93 % of control | [2] 101 % of control

CCCCOCN(COCCCC)c1ccccc1
inactive: [12] 109 % of control | [14] 103 % of control | [15] 97 % of control

COc1ccc(CCNC(=S)NC(=O)c2cc(OC)c(OC)c(OC)c2)cc1OC
inactive: [3] 87 % of control | endpoint: mean survival time, dose: 200.0 mg/kg/injection, schedule: Q04DX002 (ip), vehicle: saline with Tween-80 97 % of control | endpoint: mean survival time, dose: 400.0 mg/kg/injection, schedule: Q04DX002 (ip), vehicle: saline with Tween-80 102 % of control

C/C(=N/Nc1ccc([N+](=O)[O-])cc1[N+](=O)[O-])C1CC2CCC1C2 (stereo unspecified)
inactive: [12] 100 % of control | [14] 96 % of control | [15] 96 % of control

CC(=O)c1ccc2c3c(ccc([N+](=O)[O-])c13)C(=O)OC2=O
inactive: [7] 91 % of control | [8] 95 % of control

Clc1nc[nH]c1Cl
inactive: [10] 97 % of control | [11] 95 % of control | [4] 97 % of control | [7] 95 % of control

Cc1ccc([N+](=O)[O-])cc1C#N
inactive: [7] 105 % of control | [8] 105 % of control | [9] 113 % of control

COc1cc(OC)c(NC(=O)Oc2ccc(F)cc2Cl)cc1Cl
inactive: [11] 88 % of control | [4] 100 % of control | [5] 103 % of control
